Active and inactive are the calls of the source. The rule behind the calls is not given here.
Experiments:
Plasmodium falciparum [1] = experiment: Antiplasmodial activity against chloroquine-sensitive Plasmodium falciparum assessed as inhibition of [3H]hypoxanthine incorporation incubated for 20 to 24 hr prior to [3H]hypoxanthine addition measured after 24 grs by microbeta scintillation counting; assay type: functional, organism-based
Plasmodium falciparum [2] = experiment: Antiplasmodial activity against chloroquine-resistant Plasmodium falciparum assessed as inhibition of [3H]hypoxanthine incorporation incubated for 20 to 24 hr prior to [3H]hypoxanthine addition measured after 24 grs by microbeta scintillation counting; assay type: functional, organism-based
[3] = Cytotoxicity against Homo sapiens (human) RBC assessed as cell lysis; assay type: cell-based; details: erythrocyte
Plasmodium falciparum [4] = experiment: Antiplasmodial activity against chloroquine-sensitive Plasmodium falciparum by schizont maturation assay; assay type: functional, organism-based
Plasmodium falciparum [5] = experiment: Antiplasmodial activity against chloroquine-resistant Plasmodium falciparum by schizont maturation assay; assay type: functional, organism-based

| Structure (SMILES) | IC50 (Plasmodium falciparum [1]) [µM] | IC90 (Plasmodium falciparum [1]) [µM] | IC50 (Plasmodium falciparum [2]) [µM] | IC90 (Plasmodium falciparum [2]) [µM] | Activity [3] | Activity (Plasmodium falciparum [4]) | Activity (Plasmodium falciparum [5]) | IC99 (Plasmodium falciparum [1]) [µM] |
| --- | --- | --- | --- | --- | --- | --- | --- | --- |
| C[C@H](NC(=O)OC(C)(C)C)C(=O)Nc1nccs1 | 12.1 | 24.5 | 18.7 | 27.2 | – | – | – | – |
| CC[C@H](C)[C@H](NC(=O)OC(C)(C)C)C(=O)Nc1nccs1 | 6.32 | 9.74 | 7.84 | 11.1 | – | – | – | – |
| CC(C)(C)OC(=O)NCC(=O)Nc1nccs1 | 14.3 | 21.3 | 17.5 | 22.4 | – | – | – | – |
| CC(C)C[C@H](NC(=O)OC(C)(C)C)C(=O)Nc1nccs1 | 6.31 | 14.5 | 8.96 | 18.3 | – | – | – | – |
| N[C@H](Cc1c[nH]c2ccccc12)C(=O)Nc1nccs1 | 11.1 | 16.1 | 19.5 | 17.1 | – | – | – | – |
| CC(C)(C)OC(=O)N[C@@H](CSCc1ccccc1)C(=O)Nc1nccs1 | 9.11 | 12.6 | 10.8 | 15.5 | – | – | – | – |
| CC(C)[C@H](NC(=O)OC(C)(C)C)C(=O)Nc1nccs1 | 9.32 | 12.5 | 10.9 | 18.6 | – | – | – | – |
| CCN(CC)CCCC(C)Nc1ccnc2cc(Cl)ccc12 (stereo not drawn) [CHLOROQUINE] | – | 0.05 | – | 0.25 | – | – | – | – |
| CSCC[C@H](NC(=O)OC(C)(C)C)C(=O)Nc1nccs1 | 10.2 | 29.1 | 18.2 | 31.4 | – | – | – | – |
| CC(C)(C)OC(=O)N[C@@H](Cc1c[nH]c2ccccc12)C(=O)Nc1nccs1 | 3.45 | 7.89 | 4.87 | 9.12 | Non-toxic | Active | Active | 18.1 |
| N[C@H](Cc1ccccc1)C(=O)Nc1nccs1 | 16.1 | 33.5 | 17.4 | 45.7 | – | – | – | – |
| CC(C)(C)OC(=O)N[C@@H](Cc1ccccc1)C(=O)Nc1nccs1 | 5.62 | 16.3 | 7.41 | 18.6 | – | – | – | – |
| CC1CCCN1[C@H](NC(=O)OC(C)(C)C)C(=O)Nc1nccs1 (stereo partly drawn) | 4.89 | 11.1 | 6.12 | 12.7 | Non-toxic | Active | Active | 14.9 |

Reference: ChEMBL document CHEMBL3044965, “Design, synthesis, and antimalarial evaluation of thiazole-derived amino acids” (Med Chem Res, 2008)
